Test results from the supplement of paper PMC10307832.

What was measured:
Test in all cases: relative viability (nuclei count vs DMSO), 5 days (fraction); higher = more cells survive
Quizartinib + Bortezomib = compound: CC(C)(C)c1cc(NC(=O)Nc2ccc(-c3cn4c(n3)sc3cc(OCCN5CCOCC5)ccc34)cc2)no1 [Quizartinib] + CC(C)C[C@H](NC(=O)[C@H](Cc1ccccc1)NC(=O)c1cnccn1)B(O)O [Bortezomib] (partner 0.002 µM)
In short: (§1)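 The day after seeding in 1536-well plates, lung cancer cell lines were treated by pin tool with a single drug, or with a fixed anchor-drug dose together with five library-drug doses (not always all listed) in √10 steps. After 5 days, a combined fix-and-stain solution (final 0.05% Triton X-100, 1% formaldehyde, 1 ug/ml Hoechst) was added. Nuclei counted on 4× images gave relative viability as treated counts over vehicle counts, reported as the median of duplicate plates.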

YM155 + AZD7762 = compound: COCC[n+]1c2c(n(Cc3cnccn3)c1C)C(=O)c1ccccc1C2=O [YM155] + NC(=O)Nc1cc(-c2cccc(F)c2)sc1C(=O)N[C@H]1CCCNC1 [AZD7762] (partner 0.2 µM)
In short: as §1

YM155 + Phenformin = compound: COCC[n+]1c2c(n(Cc3cnccn3)c1C)C(=O)c1ccccc1C2=O [YM155] + N=C(N)NC(=N)NCCc1ccccc1 [Phenformin] (partner 250 µM)
In short: as §1

Quizartinib + Vorinostat = compound: CC(C)(C)c1cc(NC(=O)Nc2ccc(-c3cn4c(n3)sc3cc(OCCN5CCOCC5)ccc34)cc2)no1 [Quizartinib] + O=C(CCCCCCC(=O)Nc1ccccc1)NO [Vorinostat] (partner 1 µM)
In short: as §1

Row | Cell Line | relative viability (Quizartinib + Bortezomib; first compound 0.001 µM) | relative viability (Quizartinib + Bortezomib; first compound 0.003162 µM) | relative viability (Quizartinib + Bortezomib; first compound 0.01 µM) | relative viability (Quizartinib + Bortezomib; first compound 0.03162 µM) | relative viability (Quizartinib + Bortezomib; first compound 0.1 µM) | relative viability (YM155 + AZD7762; first compound 0.002 µM) | relative viability (YM155 + AZD7762; first compound 0.006325 µM) | relative viability (YM155 + AZD7762; first compound 0.02 µM) | relative viability (YM155 + AZD7762; first compound 0.06325 µM) | relative viability (YM155 + Phenformin; first compound 0.002 µM) | relative viability (YM155 + Phenformin; first compound 0.006325 µM) | relative viability (YM155 + Phenformin; first compound 0.02 µM) | relative viability (YM155 + Phenformin; first compound 0.06325 µM) | relative viability (Quizartinib + Vorinostat; first compound 0.001 µM) | relative viability (Quizartinib + Vorinostat; first compound 0.003162 µM) | relative viability (Quizartinib + Vorinostat; first compound 0.01 µM) | relative viability (Quizartinib + Vorinostat; first compound 0.03162 µM) | relative viability (Quizartinib + Vorinostat; first compound 0.1 µM)
1 | PC-3 [JPC-3] | 0.782 | 0.822 | 0.859 | 0.791 | 0.841 | 0.742 | 0.872 | 0.927 | 0.697 | 0.454 | 0.521 | 0.475 | 0.473 | 0.758 | 0.889 | 0.55 | 0.596 | 0.912
2 | PC-14 | 0.768 | 0.846 | 0.971 | 0.826 | 0.644 | 0.233 | 0.343 | 0.371 | 0.363 | 0.485 | 0.708 | 0.668 | 0.554 | 0.707 | 0.693 | 0.858 |  | 0.858
3 | RERF-LC-KJ | 1.04 | 1.15 | 1.26 | 1.1 | 1.06 | 1.04 | 1.19 | 1.06 | 1.03 | 0.386 | 0.432 | 0.462 | 0.463 | 0.58 | 0.707 | 0.751 | 0.53 | 0.691
